Two molecules from article PMC6951815 (Free radical biology & medicine, 2019) can be followed below.

The assay concerns the target Cys-TrxR (recombinant E. coli thioredoxin reductase) (Escherichia coli, UniProt P0A9P4). Kind of assay: Trx-dependent reduction assay. The assay is classed as biochemical.

Chain of Cys-TrxR (recombinant E. coli thioredoxin reductase) (P0A9P4 2-321): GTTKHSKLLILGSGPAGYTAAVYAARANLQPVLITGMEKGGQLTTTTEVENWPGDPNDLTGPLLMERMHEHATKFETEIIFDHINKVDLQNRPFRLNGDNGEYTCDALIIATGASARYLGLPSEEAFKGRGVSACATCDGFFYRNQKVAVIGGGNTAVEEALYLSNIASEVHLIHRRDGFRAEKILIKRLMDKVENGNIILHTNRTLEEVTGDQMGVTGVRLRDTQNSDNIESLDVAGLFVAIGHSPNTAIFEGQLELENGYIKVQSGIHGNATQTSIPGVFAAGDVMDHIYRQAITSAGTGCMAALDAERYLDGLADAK

Take `N#C[Se]O` [HOSeCN]: the IC50 worked out at 4.3 µM.

Turning to `N#CSO` [HOSCN], the IC50 is 9.3 µM.

The IC50 is the midpoint of a concentration-inhibition curve.
